Data from US20240093251A1, “Reactivity of Nitrile Hydratase by Aldehyde” (Mitsubishi Chemical Corporation, priority 2021, published 2024).
Counter-ions that a name gives are not always drawn.

Tests used:
Format in all cases: biochemical
[1] = test system: nitrile hydratase; assay: Test Example 1: effect of compounds on the amide formation reaction with Rhodococcus rhodochrous J-1 bacterial cells; details: hydrocyanic acid 2.0 ppm in acrylonitrile, 25° C.
Protocol: (§1) Acrylonitrile was prepared so as to have a hydrocyanic acid concentration of 2.0 ppm.
A diluted solution containing an aldehyde compound diluted with a phosphate buffer (pH7.0) so as to obtain a concentration of 5 ppm or 10 ppm in the reaction solution, was added, and finally the phosphate buffer (pH7.0) was added to obtain a total amount of 6.2 g. The obtained solution was stirred while the temperature thereof was controlled at 25° C. To this solution, acrylonitrile (4.8 mL (acrylamide 50% equivalent, 38 wt %)) was added to initiate a reaction. At the time points of 3.5, 4.5, 5.0, and 6.0 hours later, the reaction solution was collected and the concentration of acrylonitrile was measured by gas chromatography (column: PoraPack-PS (manufactured by Waters Corporation), 1 m, 210° C., carrier gas: helium, detector: FID).
(§2) The concentration ratio can be obtained in accordance with the following expression:
(§3) Concentration ratio [%]=(acrylonitrile concentration of the case where aldehyde was added/the case where aldehyde was not added)×100

[2] = test system: nitrile hydratase; assay: Amide formation reaction from acrylonitrile with Rhodococcus rhodochrous J-1 bacterial cells, acetaldehyde in acrylonitrile (Examples 1-4); details: for Concentration ratio (4 hr) (acrylonitrile concentration with aldehyde / without aldehyde x100): 20° C.
Protocol: Rhodococcus rhodochrous J-1 strain (FERMBP-1478) having nitrile hydratase activity was aerobically cultured in a medium (pH7.0) containing glucose (2.0%), urea (1.0%), peptone (0.5%), yeast extract (0.3%) and cobalt chloride (0.05%) at 30° C. The medium was washed with a 50 mM phosphate buffer (pH7.0) to obtain a bacterial suspension (3% on a dry-cell basis).
A cyan 1000-ppm standard solution (manufactured by Hayashi Pure Chemical Ind., Ltd.) was added to acrylonitrile for industrial use (manufactured by Mitsubishi Chemical Corporation) such that the hydrocyanic acid concentration became 2.1 ppm on a weight basis. […]
To a glass case (internal volume: 13.5 ml) with a lid, 3.15 g of a phosphate buffer (pH7.0), and 3.15 g of a diluted bacterial cell solution, which was prepared by diluting bacterial cells as mentioned above with the phosphate buffer (pH7.0) such that initial activity thereof in a reaction solution became 1460 U, were added. The mixture was stirred while controlling the temperature at 20° C. […] Four hours later, the reaction solution was collected and the concentration of acrylonitrile was measured by gas chromatography (column: PoraPack-PS (manufactured by Waters Corporation), 1 m, 210° C., carrier gas: helium, detector: FID).
as §2, §3

[3] = test system: nitrile hydratase derived from Rhodococcus rhodochrous M8 strain; assay: Example 5: amide compound formation reaction by M8 strain-derived transformant (ATCC12674/pSJ-N01A); details: hydrocyanic acid 2.0 ppm in acrylonitrile, 25° C.
Protocol: (§4) The transformant (ATCC12674/pSJ-N01A) obtained in the above step was inoculated in MYK medium (50 μg/ml kanamycin) and subjected to shaking culture performed at 30° C. for two days. The cultured transformant (1%) was inoculated in GGPK medium (1.5% glucose, 1% monosodium glutamate, 0.1% yeast extract, 0.05% K2HPO4, 0.05% KH2PO4, 0.05% […], 1% CoCl2, 0.1% urea, 50 μg/ml kanamycin, pH7.2). Shaking culture was carried out at 30° C. for three days and bacterial cells were centrifugally collected. Thereafter, the bacterial cells were washed with a 100 mM phosphate buffer (pH7.0) and a bacterial suspension was prepared.
According to Example 1, the effect of propionaldehyde on amide compound formation reaction by M8 strain-derived transformant (ATCC12674/pSJ-N01A) was evaluated.
as §1
To a glass case (internal volume: 13.5 ml) with a lid, 1.00 g of a diluted bacterial-cell solution, which was prepared by diluting bacterial cells as mentioned above with the phosphate buffer (pH7.0) such that the initial amount of the bacterial cells in a reaction solution became 5.6 mg; and a diluted solution, which was prepared by diluting each aldehyde compound with a phosphate buffer (pH7.0) so as to obtain a concentration thereof of 10 ppm, 25 ppm or 50 ppm in a reaction solution, were added; and finally, a phosphate buffer (pH7.0) was added up to a total amount of 9.0 g. The solution obtained was stirred while the temperature thereof was controlled at 25° C. To this solution, acrylonitrile (1.0 g) was added to initiate a reaction. Six hours later, the reaction solution was collected and the concentration of acrylonitrile was measured by gas chromatography (column: PoraPack-PS (manufactured by Waters Corporation), 1 m, 210° C., carrier gas: helium, detector: FID).
as §2, §3

[4] = test system: nitrile hydratase derived from Pseudonocardia thermophila JCM3095 strain; assay: Example 6: amide compound formation reaction by transformant (ATCC12674/pSJ-N02A); details: propionaldehyde 7 ppm in reaction solution, propionaldehyde/cyan 10.7 mol/mol, hydrocyanic acid 2.0 ppm in acrylonitrile, 25° C.
Protocol: as §4, with “(ATCC12674/pSJ-N02A)” for “(ATCC12674/pSJ-N01A)”
According to Example 1, the effect of propionaldehyde on amide compound formation reaction by transformant (ATCC12674/pSJ-N02A) was evaluated.
Acrylonitrile was prepared so as to have a hydrocyanic acid concentration of 2.0 ppm. […]

[5] = 5 ppm addition in reaction solution
[6] = 10 ppm addition in reaction solution

Compound | Concentration Ratio (3.5 hr) [1, 5] [%] | Concentration Ratio (6 hr) [1, 5] [%] | also measured
CC1NC(C)NC(C)N1 (stereo not shown) [No. 19, acetaldehyde ammonia] | 30.0 | 3.3 | 
C1N2CN3CN1CN(C2)C3 [No. 20, hexamethylenetetramine] | 0.3 | 2.4 | 
CCCC=O [No. 4, butyraldehyde] | 3.1 | 2.7 | 
CCCCCCC=O [No. 6, heptanal] | 62.1 | 17.6 | 
CCCCCCCCCC=O [No. 9, decanal] | 96.1 | 67.0 | 
O=CO [No. 10, formic acid, reference compound] | 99.6 | 88.9 | Concentration Ratio (3.5 hr) [1, 6]: 95.1%; Concentration Ratio (6 hr) [1, 6]: 94.9%
CC=O [No. 2, acetaldehyde] | 7.5 | 9.2 | Concentration ratio (4 hr) (acrylonitrile concentration with aldehyde / without aldehyde x100) ([2]; Example 1: hydrocyanic acid 2.1 ppm, acetaldehyde 10 ppm in acrylonitrile, acetaldehyde/cyan 2.9 mol/mol): 38.8%; Concentration ratio (4 hr) (acrylonitrile concentration with aldehyde / without aldehyde x100) ([2]; Example 2: hydrocyanic acid 2.1 ppm, acetaldehyde 6 ppm in acrylonitrile, acetaldehyde/cyan 1.8 mol/mol): 76.1%; Concentration ratio (4 hr) (acrylonitrile concentration with aldehyde / without aldehyde x100) ([2]; Example 3: hydrocyanic acid 2.1 ppm, acetaldehyde 3 ppm in acrylonitrile, acetaldehyde/cyan 0.9 mol/mol): 92.5%; Concentration ratio (4 hr) (acrylonitrile concentration with aldehyde / without aldehyde x100) ([2]; Example 4: hydrocyanic acid 1.1 ppm, acetaldehyde 10 ppm in acrylonitrile, acetaldehyde/cyan 5.6 mol/mol): 9.8%; rate of a reaction that converts acrylonitrile to an amide compound ([2]; compared to Comparative Example without acetaldehyde, hydrocyanic acid 2.1 ppm or 1.1 ppm): high
O=Cc1ccccc1 [No. 15, benzaldehyde] | 92.0 | 66.2 | 
C=C(C)C1CC=C(C=O)CC1 (stereo not shown) [No. 17, perillaldehyde] | 82.8 | 59.6 | 
CCCCCCCC=O [No. 7, octanal] | 106.4 | 117.5 | Concentration Ratio (3.5 hr) [1, 6]: 72.9%; Concentration Ratio (6 hr) [1, 6]: 11.6%
paraformaldehyde [No. 14] | 1.1 | 1.1 | 
CCCCCC=O [No. 5, hexanal] | 83.9 | 17.8 | 
O=CC=O [No. 11, dialdehyde oxalate] | 33.4 | 12.2 | 
OC[C@@H](O)[C@@H](O)CO [No. 12, meso-erythritol, reference compound] | 103.3 | 118.2 | Concentration Ratio (3.5 hr) [1, 6]: 97.8%; Concentration Ratio (6 hr) [1, 6]: 97.3%
COc1cc(C=O)ccc1O [No. 18, vanillin] | 92.9 | 71.7 | 
CCCCCCCCC=O [No. 8, nonanal] | 97.1 | 81.4 | Concentration Ratio (3.5 hr) [1, 6]: 80.1%; Concentration Ratio (6 hr) [1, 6]: 35.0%
CCC=O [No. 3, propionaldehyde] | 2.2 | 1.4 | Concentration Ratio (6 hr) ([3]; propionaldehyde 10 ppm in reaction solution, propionaldehyde/cyan 22.9 mol/mol): 82.7%; Concentration Ratio (6 hr) ([3]; propionaldehyde 25 ppm in reaction solution, propionaldehyde/cyan 57.1 mol/mol): 70.4%; Concentration Ratio (6 hr) ([3]; propionaldehyde 50 ppm in reaction solution, propionaldehyde/cyan 114.3 mol/mol): 60.0%; Concentration Ratio (6 hr) [4]: 33.3%
O=CC=Cc1ccccc1 [No. 16, cinnamaldehyde] | 97.0 | 102.6 | Concentration Ratio (3.5 hr) [1, 6]: 99.2%; Concentration Ratio (6 hr) [1, 6]: 87.1%
